{"source": "patent US10682388B2", "about": "“Targeting of PELP1 in cancer therapy” (THE BOARD OF REGENTS OF THE UNIVERSITY OF TEXAS SYSTEM, priority 2014, dated 2020)", "key": {"ZRPELP1 cells": {"tested_on": "ZRPELP1 cells", "assay": "Soft agar colony formation assay", "type": "cell-based, Human", "conditions": "10 μM every three days, colonies counted day 14, FIG. 5C", "procedure": "FIGS. 5A-D. (FIG. 5A) ZR75vec, ZR75PELP1, MCF7vec and MCF7PELP1 cells were plated in the top of a Boyden chamber transwell, treated with TAT, PIP1 or PIP2 (10 μM) and absorbance was measured at 12 hours in triplicate. (FIG. 5B) MCF7vec, MCFP7ELP1, ZR75vec and ZR75PELP1 cells were treated in triplicate with TAT, PIP1 or PIP2 (10 μM) every 3 days, fixed with methanol on day 10 and stained with crystal violet. Average colonies per well are shown. (FIG. 5C) ZR75vec and ZR75PELP1 cells were plated in triplicate in agar with 8% RPMI with TAT, PIP1 or PIP2 (10 μM). Colonies were counted on day 14, representative images are shown on right. (FIG. 5D) ZR75 cells were plated on coverslips in triplicate and treated with TAT or PIP1 (10 μM) for 24 hours. Cells were fixed with paraformaldehyde and labeled with TUNEL and DAPI, representative images are shown on right.\nModel cells MCF7, MCF7-PELP1, ZR75 and ZR75-PELP1 were seeded in a 0.6% agar solution with RPMI/10% FBS over a base agar layer in 35 mm plates in triplicate with TAT, PIP1, or PIP2 (10 μM). Media with peptide was added every 3 days and colonies were counted after 14 days."}, "[1]": {"tested_on": "Beta-catenin reporter in ZRGST and ZRPELP1GST cells", "assay": "TopFlash β-catenin reporter assay", "type": "cell-based", "conditions": "10 μM, 24 hours, independent of ERα, FIG. 7C", "procedure": "FIGS. 7A-E. (FIG. 7A) Bacterial purified PELP1 was incubated with biotin-tagged peptides bound to avidin beads for one hour. Beads were washed, run on SDS-PAGE gel and probed for PELP1 expression. Input of bacterial PELP1 is shown as control. (FIG. 7B) Recombinant G9a-GST was bound to glutathione beads and incubated with purified PELP1 and peptides for 2 hours. Beads were washed and run on SDS-PAGE gel. (+2 μM, ++5 μM, +++10 μM). (FIG. 7C) ZRGST and ZRPELP1GST cells were transfected in triplicate with TopFlash β-catenin reporter and treated with TAT or PIP1 (10 μM) for 24 hours. Relative luciferase activity is shown. (FIG. 7D) MCF7vec and MCF7PELP1 cells were treated with TAT or PIP1 (10 μM) and toxicity was measured by CytoTox-Flour Cytotoxicity Assay. (FIG. 7E) ZR75 and ZR75PELP1 cells were treated with TAT, PIP1 or PIP2 for 24 hours and immunoblotted for PELP1 and ERα expression with actin as the loading control."}, "ZR75 cells": {"tested_on": "ZR75 cells", "assay": "Estrogen-mediated growth, MTT assay", "type": "cell-based, Human", "conditions": "ZR75 cells stimulated with estradiol, FIG. 4C", "procedure": "FIGS. 4A-E. (FIG. 4A) ZR75vec, ZR75PELP1, MCF7vec and MCF7PELP1 cells were treated in triplicate with TAT, PIP1 or PIP1 deletions (Del1, Del2, Del3) at 10 uM every 3 days and proliferation was measured by MTT assay on day 7. (FIG. 4B) ZRPELP1 cells were transfected with ERE-luciferase and treated with TAT, PIP1, or PIP2 for 24 hours and with estradiol for 12 hours. Relative luciferase activity was measured in triplicate. (FIG. 4C) ZR75 cells were grown in 5% DCC media for 72 hours, treated with TAT or PIP1 every 3 days, and treated with estradiol 10^−7 M for 12 hours. Proliferation was measured in triplicate on day 7 by MTT assay at 595 nm. (FIG. 4D) MCF7-Letrozole resistant cells were grown in 5% DCC media for 72 hours, treated with TAT, PIP1 or PIP2 every 3 days, and letrozole or estradiol 10^−7 M for 12 hours. Proliferation was measured in triplicate on day 7 by MTT assay at 595 nm. […] Proliferation was measured in triplicate on day 7 by MTT assay at 595 nm.\nCell proliferation rates were measured by using MTT Cell Viability Assay in 96-well plates. […] After an overnight incubation, cells were treated with varying concentrations of the peptides for 3-7 days and growth inhibition was determined by using traditional MTT assay (Sigma) following manufacturer's instructions."}, "PELP1": {"target": "PELP1 (Homo sapiens, UniProt Q8IZL8)", "sequence (Q8IZL8 whole entry, the tested form may be a part)": "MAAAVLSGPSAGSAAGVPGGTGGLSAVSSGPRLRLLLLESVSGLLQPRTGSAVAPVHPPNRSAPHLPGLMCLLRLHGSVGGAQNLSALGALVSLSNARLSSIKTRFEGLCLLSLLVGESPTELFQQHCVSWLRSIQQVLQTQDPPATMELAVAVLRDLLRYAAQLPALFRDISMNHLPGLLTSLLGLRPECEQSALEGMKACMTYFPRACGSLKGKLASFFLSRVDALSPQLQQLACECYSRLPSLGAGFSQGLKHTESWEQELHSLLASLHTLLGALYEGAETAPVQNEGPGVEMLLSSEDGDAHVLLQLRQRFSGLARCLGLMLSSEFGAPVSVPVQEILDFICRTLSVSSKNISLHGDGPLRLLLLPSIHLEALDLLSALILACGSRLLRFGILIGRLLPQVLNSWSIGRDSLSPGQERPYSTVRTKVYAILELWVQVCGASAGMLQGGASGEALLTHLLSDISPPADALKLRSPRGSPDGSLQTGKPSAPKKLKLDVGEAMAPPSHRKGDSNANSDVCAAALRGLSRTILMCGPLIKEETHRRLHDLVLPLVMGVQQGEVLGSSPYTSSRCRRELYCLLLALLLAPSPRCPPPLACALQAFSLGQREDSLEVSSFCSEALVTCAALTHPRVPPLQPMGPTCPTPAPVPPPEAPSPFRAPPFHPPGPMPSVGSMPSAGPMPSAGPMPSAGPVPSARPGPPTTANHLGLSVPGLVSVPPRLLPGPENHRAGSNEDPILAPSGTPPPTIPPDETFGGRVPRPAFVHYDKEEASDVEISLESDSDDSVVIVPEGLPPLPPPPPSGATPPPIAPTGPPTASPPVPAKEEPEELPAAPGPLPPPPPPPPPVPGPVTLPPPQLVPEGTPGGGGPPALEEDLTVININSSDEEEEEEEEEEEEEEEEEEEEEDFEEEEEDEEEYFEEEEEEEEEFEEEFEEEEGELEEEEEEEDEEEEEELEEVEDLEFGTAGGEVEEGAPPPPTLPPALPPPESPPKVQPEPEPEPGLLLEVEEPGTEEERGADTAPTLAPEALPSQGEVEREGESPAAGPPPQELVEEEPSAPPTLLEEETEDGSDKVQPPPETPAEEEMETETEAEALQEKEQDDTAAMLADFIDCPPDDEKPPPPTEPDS", "assay": "Peptide pull-down assay, biotin-tagged peptides on avidin beads with nuclear lysates from ZR75 cells", "type": "binding", "conditions": "one hour, FIG. 1D", "procedure": "FIGS. 1A-D. (FIG. 1A) Diagram for yeast two hybrid screen to identify PELP1 binding peptides. Four regions of PELP1 were tagged with the binding domain and a library of 10^6 random peptides (Clontech) were bound to an activation domain. The number of positive colonies per region of PELP1 are shown in the graph. (FIG. 1B) A proliferation assay was performed with […]1 cells plated in a 96 well plate, treated with peptide every 3 days and absorbance was measured at 7 days. (FIG. 1C) ZR75 were plated in a 6-well plate on coverslips in 8% RPMI and treated with 10 uM FITC labeled peptide for 30, 60, or 120 minutes. They were then fixed with pararformaldehyde, stained for PELP1 (red) and DAPI (blue), and imaged by confocal microscopy to monitor intracellular delivery. (FIG. 1D) ZR75 cells were starved of estrogen for 72 hours and treated with estradiol 10^-7 M for 12 hours. Nuclear lysate was incubated with biotin-tagged peptides bound to avidin beads for one hour. Beads were washed, run on SDS-PAGE gel and probed for PELP1 expression. Input of nuclear lysate is shown as control. Peptides were linked to EZ-Link NHS-Biotin (Thermo Scientific) per manutfacturer's protocol. […] Beads were washed 3× with IP buffer (20 mM HEPES pH 7.9, 20% glycerol, 0.1% triton-x, 100 mM KCl), eluted with SDS-dye, and PELP1 expression was determined by western blotting. […]"}}, "data": [{"sequence": "GRKKRRQRRRGGMVEFRWSCPGRRKAKA [PIP1]", "values": [{"measurement": "colony formation in soft agar (anchorage independence)", "setting": "ZRPELP1 cells", "value": "substantial decrease in colony formation"}, {"measurement": "Beta-catenin reporter activity", "setting": "[1]", "value": "no significant effect on reporter activity"}, {"measurement": "estrogen-mediated growth", "setting": "ZR75 cells", "value": "inhibition of the estrogen-mediated growth"}, {"measurement": "affinity to bind to PELP1 in peptide pull-down", "setting": "PELP1", "value": "higher affinity to bind to PELP1 than PIP2"}]}]}
